This note sets out measurements from article PMC5642145, “Impact of the structures of macrocyclic Michael acceptors on covalent proteasome inhibition” (Chemical Science, 2017).

Like-named read-outs stand apart in the source and are kept apart here. Some results are limits rather than exact numbers.

As usually defined, the Ki is the equilibrium dissociation constant of an inhibitor or competing ligand from its target.

Test [1] deals with T1, β5 subunit of the human constitutive 20S proteasome (Homo sapiens, UniProt P20618+P28074).
T1 construct: human erythrocyte 20S; purchased R&D Systems, Inc; host or cells: human erythrocytes (native, purified from tissue)
Briefly: In vitro β5 proteasome inhibitory activity and kinetic constants (Suc-LLVY-AMC, chymotrypsin-like activity). The class given is biochemical. The conditions noted are these: for K′i (apparent β5 subunit inhibitory activity): human erythrocyte 20S proteasome, chymotrypsin-like activity, 37 °C; for kinact/KI: read-out: k assoc (k2/Ki). An excerpt: First, the effect of modifying the macrocycle was investigated for 1–3 by analyzing the inhibitory activity of the β5 subunit of the human constitutive 20S proteasome. […] The k 2/K i ratio represents the second-order rate constant for the reaction of the inhibitor with the target (k assoc), and it indicates the overall inhibitory potency of the inhibitor.
4) Evaluation of in vitro β5 proteasome inhibitory activity and determination of kinetic […]
In vitro proteasome inhibitory activity was measured on 96-well microtiter plates using human erythrocyte 20S proteasome (R&D Systems, Inc.) with the AK-740 Assay Kit for Drug Discovery (Biomol). Reactions were performed at 37 °C in 100 μ L volu mes containing a serial dilution of test samples, 2 μ g/mL 20S proteasome, and 100 μM Suc-L LV Y -AMC for assaying chymotrypsin-like activity, according to the manufacture’s instructions.
Fluorescence was monitored with an infinite M200 microplate reader (Tecan) equipped with 360 nm excitation and […]
The observed rate constant for inhibition, kobs, at each concentration was determined fro m the slope of a semi-logarithmic plot of inhibition versus […]
equation, k obs = k 2[I]/(K i+[I]), to obtain values for Ki and k2. The k2/Ki ratio represents the second -order rate constant for the reaction of the inhibitor with the target. S7)

For test [2], the system named is human myeloma Amo-1 cells. Briefly: Anti-proliferation activity against Amo-1 cells (CCK-8). The test is classed as cell-based. The method, then:
5) Evaluation of anti -proliferation activity against Amo- 1cells
Cell proliferation assays were performed using the Cell Counting Kit-8 (CCK-8) (Dojindo, CK04) according to the manufacturer’s protocol. In brief, Amo- 1 cells were cultured in RPMI1640 medium containing 10% FBS and 1% penicillin -strepto myc in.
After culturing for 24 h at 37 °C under atmosphere of 5% CO2, the cells were treated with a solution of the compound in DMSO (1 µL) at 37 °C for 72 h. A solution of the CCK-8 (10 µL) was then added to each well and the cells were incubated at 37 °C for 3 h. The absorbance at 450 nm was measured using an Infinite M200 PRO multimode microplate reader (Tecan). The data points were calculated from the average (±standard deviation) of three assays […]
(IC 50) were calculated from curves constructed by plotting cell proliferation (%) versus the log of compound […]
(1 picture or pasted object on this page, not shown here)

Where [3] appears, read: from fit kobs = k2[I]/(Ki + [I]).
Setting [4] is: second-order rate constant, k2/Ki ratio.
Setting [5] is: AMO1, Amo-1 cells, 72 h, CCK-8, read-out: IC50 (cell proliferation).

For `CC(C)[C@H](NC(=O)N[C@H](C(=O)N[C@H]1C/C=C/CNC(=O)/C=C/[C@H](C(C)C)NC1=O)C(C)C)C(=O)O` [Isosyringolin A (3), Isosyringolin A], the k 2 in test [1] (setting [3]) was determined as 0.00339 s⁻¹. Moreover, in test [1], the “K′i (apparent β5 subunit inhibitory activity)” value worked out at 590 nM and the kinact/KI amounted to 166 M⁻¹ s⁻¹.
Take `CCCCCCCCCC(=O)N[C@@H](Cc1ccccc1)C(=O)N[C@H]1CCCCCNC(=O)/C=C/[C@H](C(C)C)NC1=O` [analogue 12]: in test [1] (setting [3]), the Ki is 9090 nM and the k 2 was determined as 0.00203 s⁻¹. For the same molecule, the “K′i (apparent β5 subunit inhibitory activity)” value in test [1] is 402 nM. In test [1] (setting [4]), the kinact/KI stood at 224 M⁻¹ s⁻¹.
In the case of `CCCCCCCCCC(=O)N[C@@H](Cc1ccccc1)C(=O)N[C@H]1C/C=C/CCNC(=O)/C=C/[C@H](C(C)C)NC1=O` [analogue 11], in test [1] (setting [3]), the Ki turned out to be 1230 nM and the k 2 amounted to 0.000875 s⁻¹. Moreover, the “K′i (apparent β5 subunit inhibitory activity)” value in test [1] stood at 320 nM. Further, in test [1] (setting [4]), the kinact/KI was 713 M⁻¹ s⁻¹.
On to `CCCCCCCCCC(=O)N[C@@H](Cc1ccccc1)C(=O)N[C@H]1/C=C/CNC(=O)/C=C/[C@H](C(C)C)NC1=O` [analogue 8], for which the “K i, decrease in affinity relative to 4” value in test [1] (decrease relative to 4) is listed as 6.3 fold. In test [1] (setting [3]), the Ki was found to be 432 nM and the k 2 stood at 0.00551 s⁻¹. In test [1] (greater than that of the 12-membered 4), the “k 2 relative to 4” value amounted to 1.29 fold. Moreover, the “K′i (apparent β5 subunit inhibitory activity)” value in test [1] is reported as 20.6 nM. Also, the kinact/KI in test [1] (setting [4]) is 12800 M⁻¹ s⁻¹. The IC50 in test [2] (setting [5]) was found to be 26.3 ± 9.3 nM.
Take `CCCCCCCCCC(=O)N[C@@H](Cc1ccc(-c2ccccc2)cc1)C(=O)N[C@H]1/C=C/CNC(=O)/C=C/[C@H](C(C)C)NC1=O` [analogue 14]: in test [1] (setting [3]), the Ki came out at 42.2 nM and the k 2 turned out to be 0.00428 s⁻¹. The “K′i (apparent β5 subunit inhibitory activity)” value in test [1] is listed as 0.77 nM. Also, in test [1] (setting [4]), the “k assoc (k2/Ki)” value amounted to 101422 s^–1 M^–1 and the kinact/KI was found to be 101000 M⁻¹ s⁻¹. In addition, in test [2] (setting [5]), the IC50 stood at 12.1 nM.
As to `CCCCCCCCCC(=O)N[C@@H](Cc1ccccc1)C(=O)N[C@H]1CCCNC(=O)/C=C/[C@H](C(C)C)NC1=O` [analogue 9], in test [1] (setting [3]), the Ki is 547 nM and the k 2 was determined as 0.00365 s⁻¹. For the same molecule, the “K′i (apparent β5 subunit inhibitory activity)” value in test [1] came out at 48.2 nM. Moreover, the kinact/KI in test [1] (setting [4]) stood at 6670 M⁻¹ s⁻¹.
The corresponding values for `CCCCCCCCCC(=O)N[C@@H](Cc1ccccc1)C(=O)N[C@H]1CC/C=C/CNC(=O)/C=C/[C@H](C(C)C)NC1=O` [analogue 10] are 527 nM, 0.00134 s⁻¹, 79.2 nM and 2550 M⁻¹ s⁻¹.
Take `CCCCCCCCCC(=O)N[C@@H](Cc1ccccc1)C(=O)N[C@H]1/C=C/CCNC(=O)/C=C/[C@H](C(C)C)NC1=O` [analogue 4]: the IC50 in test [2] (AMO1, 72 h, read-out: IC50 (cell proliferation)) is 4.33 ± 1.6 nM.
`CC(C)[C@H](NC(=O)N[C@H](C(=O)N[C@H]1/C=C/CCNC(=O)/C=C/[C@H](C(C)C)NC1=O)C(C)C)C(=O)O` [Syringolin A (1), Syringolin A, reference compound]: the figures for the “k 2” value in test [1] (as printed in text in s^–1) and in test [1] (setting [3]) were 3.91 × 10^–3 s^–1 and 0.00391 s⁻¹, respectively. The “K′i (apparent β5 subunit inhibitory activity)” value in test [1] is listed as 170 nM. In addition, in test [1], the kinact/KI is 1770 M⁻¹ s⁻¹.
`C=CC[C@H](NC(=O)[C@H](Cc1ccccc1)NC(=O)CCCCCCCCC)C(=O)N[C@H](/C=C/C(=O)NC)C(C)C` [analogue 13]: the “K′i (apparent β5 subunit inhibitory activity)” value in test [1] is listed as more than 1000 nM. Moreover, the “inhibitory activity” value in test [1] (β5 subunit) is given as “no inhibitory activity”.
